Marks after values point to notes of the source that are not given here.
Columns and labels:
[1] = In vitro skin permeation, Franz cell pseudo-finite dose study (acyclovir and CF); format: in vitro ADME, human; conditions: pseudo-finite dose
Method: Zovirax® spiked with ^3H-ACV was used as the formulation for the entire study. Briefly, 300 μl of ^3H ACV was placed into a 1.5 ml centrifuge tube and evaporated off, over a stream of air. Approximately 1 g of Zovirax® was weighed into the centrifuge tube and carefully mixed with a fine spatula to achieve a homogenous mix. To test for homogeneity, 3 random samples (top, middle and bottom) were taken and determined for radioactivity via scintillation counting.
Anodal treatment was conducted by placing the anode electrode in the donor compartment and the opposite electrode (cathode) in the receptor compartment of the Franz cell. Cathodal iontophoresis was conducted vice versa. The current treatment protocols employed were either • (a) iontophoresis: dose was administered simultaneously with current or • (b) post-iontophoresis: dose applied immediately after skin exposure to current. • A current intensity of 0.40 mA was employed for a 10 min period during both protocols. Novel Device (Rotatinig Brush) Procedure
Finite dose permeation experiments were performed using similar conditions as described above. The Franz cell studies were carried out without the use of a donor well, in order to allow for the placement of the iontophoretic device over the epidermal membrane. […] The effectiveness of the seal was confirmed if leakage of receptor fluid from the region of contact between skin and adhesive was not observed.
A formulation with a target dose of approximately 9±1 mg/cm^2 (ACV) and 20±2 mg/cm^2 (CF) was applied to the epidermal membrane surface using a previously calibrated positive displacement pipette. Selected control experiments were then performed as described above (anodal and cathodal iontophoresis was performed by simultaneous application of dose and current over a 10 min period for CF and ACV respectively). At certain time intervals 200 μl of the receiver fluid was carefully withdrawn from the receiver fluid (maximum duration of 4 h). Approximately 4 ml of scintillation cocktail was then added and the ACV sample analysed by scintillation counting, whereas the other penetrant was assayed via the HPLC method already described.

[2] = In vitro skin permeation, Franz cell infinite dose study (optimisation studies with MP, BP, CF); conditions: for EF enhancement factor: flux vs untreated skin
[3] = octanol/water; cited from earlier work
[4] = Table 4a, CF, brush A 450 Nm^−2/20 s, 80 rpm
[5] = Table 4a, CF, brush A 450 Nm^−2/45 s, 80 rpm
[6] = Table 4a, CF, brush A 1200 Nm^−2/45 s, 80 rpm
[7] = Table 5a, CF, EtOH/PBS (50% ethanol donor solution)
[8] = Table 5a, CF, brush A 450 Nm^−2, 45 s, 80 rpm
[9] = Table 5a, CF, brush B 300 Nm^−2, 15 s, 80 rpm
[10] = Table 5a, CF, brush B 300 Nm^−2, 25 s, 80 rpm
[11] = Table 4b, BP, brush A 450 Nm^−2, 20 s, 80 rpm
[12] = Table 4b, BP, brush A 450 Nm^−2, 45 s, 80 rpm
[13] = Table 4b, BP, brush A 750 Nm^−2, 45 s, 80 rpm
[14] = Table 4b, BP, brush A 1200 Nm^−2, 45 s, 80 rpm
[15] = Table 5c, BP, EtoH/PBS (50% ethanol donor solution)
[16] = Table 5c, BP, brush A 450 Nm^−2, 45 s
[17] = Table 5c, BP, brush B 300 Nm^−2, 15 s
[18] = Table 5c, BP, brush B 300 Nm^−2, 25 s
[19] = Table 5c, BP, brush B 450 Nm^−2, 15 s
[20] = Table 5c, BP, tapestripped skin

Cn1c(=O)c2c(ncn2C)n(C)c1=O [CF, Caffeine]
Amount of CF in receptor after 30 min compared with other methods of enhancement ([1]; brush B 300 Nm^−2/25 s): at least double | Amount of CF deposited in receptor compartment compared with untreated skin ([1]; chemical enhancement method (50% ethanol)): not to be significantly different | Time after which presence of CF in receptor was determined ([1]; untreated skin and chemical enhancement, limit of detection 0.05 ug/ml): 120 min | Reduction of lag times relative to original value ([2]; CF, brush A, altering pressure or duration of treatment): ~75% | KP permeability coefficient [2, 4]: 5.04 ± 1.30 10^−8 cm/s | TL lag time [2, 4]: 68.33 ± 17.76 min | EF enhancement factor [2, 4]: 1.47 | JS flux ([2]; Table 4a, CF, brush A 450 Nm^−2/20 s, 80 rpm, n = 2): 10.3 ± 2.67^p 10^−4 μg/cm/s | JS flux [2, 5]: 16.3 ± 0.86* 10^−4 μg/cm/s | KP permeability coefficient [2, 5]: 7.95 ± 0.42 10^−8 cm/s | TL lag time [2, 5]: 41.21 ± 8.09 min | EF enhancement factor [2, 5]: 2.34 | JS flux [2, 6]: 18.4 ± 8.93* 10^−4 μg/cm/s | KP permeability coefficient [2, 6]: 8.97 ± 4.06 10^−8 cm/s | TL lag time [2, 6]: 16.74 ± 6.50 min | EF enhancement factor [2, 6]: 2.64 | JS flux ([2]; Table 4a, CF, delipidised skin): 52.25 ± 25.17* 10^−4 μg/cm/s | KP permeability coefficient ([2]; Table 4a, CF, delipidised skin): 25.66 ± 12.28 10^−8 cm/s | TL lag time ([2]; Table 4a, CF, delipidised skin): 4.19 ± 1.39 min | EF enhancement factor ([2]; Table 4a, CF, delipidised skin): 7.47 | KP permeability coefficient ([2]; Table 4a, CF, untreated skin): 3.39 ± 0.75 10^−8 cm/s | TL lag time ([2]; Table 4a, CF, untreated skin): 77.66 ± 12.96 min | KP permeability coefficient [2, 7]: 141.4 ± 31.21 10^−8 cm/s | TL lag time [2, 7]: 26.71 ± 9.26 min | EF enhancement factor ([2]; Table 5a, CF, EtOH/PBS): 15.46 | JS flux [2, 8]: 8.52 ± 0.29* 10^−4 μg/cm/s | KP permeability coefficient [2, 8]: 41.61 ± 14.19 10^−8 cm/s | TL lag time [2, 8]: 16.74 ± 3.99 min | EF enhancement factor [2, 8]: 4.55 | KP permeability coefficient [2, 9]: 342.4 ± 170.1 10^−8 cm/s | EF enhancement factor [2, 9]: 37.41 | KP permeability coefficient [2, 10]: 589.93 ± 207.62 10^−8 cm/s | EF enhancement factor [2, 10]: 64.44 | KP permeability coefficient ([2]; Table 5a, CF, delipidised skin): 99.68 ± 26.84 10^−8 cm/s | EF enhancement factor ([2]; Table 5a, CF, delipidised skin): 10.93 | TL lag time ([2]; Table 5a, CF, untreated skin): 19.69 ± 3.54 min

CCCCOC(=O)c1ccc(O)cc1 [BP, Butyl paraben]
Log P (o/w) [3]: 3.57 | JS flux [2, 11]: 6.60 ± 0.49* 10^−3 μg/cm/s | KP permeability coefficient [2, 11]: 3.30 ± 0.25 10^−5 cm/s | TL lag time [2, 11]: 37.10 ± 2.26 min | EF enhancement factor [2, 11]: 1.74 | JS flux [2, 12]: 7.50 ± 0.75* 10^−3 μg/cm/s | KP permeability coefficient [2, 12]: 3.75 ± 0.37 10^−5 cm/s | TL lag time [2, 12]: 25.22 ± 2.17 min | EF enhancement factor [2, 12]: 1.97 | JS flux [2, 13]: 8.26 ± 0.89* 10^−3 μg/cm/s | KP permeability coefficient [2, 13]: 4.13 ± 0.45 10^−5 cm/s | TL lag time [2, 13]: 26.34 ± 1.48 min | EF enhancement factor [2, 13]: 2.17 | JS flux [2, 14]: 8.62 ± 1.05* 10^−3 μg/cm/s | KP permeability coefficient [2, 14]: 4.31 ± 0.52 10^−5 cm/s | TL lag time [2, 14]: 26.39 ± 1.30 min | EF enhancement factor [2, 14]: 2.26 | JS flux ([2]; Table 4b, BP, delipidised skin): 15.95 ± 1.55* 10^−3 μg/cm/s | KP permeability coefficient ([2]; Table 4b, BP, delipidised skin): 7.98 ± 0.78 10^−5 cm/s | TL lag time ([2]; Table 4b, BP, delipidised skin): 18.58 ± 3 min | EF enhancement factor ([2]; Table 4b, BP, delipidised skin): 4.20 | KP permeability coefficient ([2]; Table 4b, BP, untreated skin): 1.90 ± 0.23 10^−5 cm/s | TL lag time ([2]; Table 4b, BP, untreated skin): 33.47 ± 8.79 min | KP permeability coefficient [2, 15]: 9.24 ± 0.80 10^−5 cm/s | TL lag time [2, 15]: 26.43 ± 5.05 min | EF enhancement factor ([2]; Table 5c, BP, EtoH/PBS): 3.75 | JS flux [2, 16]: 8.38 ± 1.09* 10^−4 μg/cm/s | KP permeability coefficient [2, 16]: 4.19 ± 0.54 10^−5 cm/s | TL lag time [2, 16]: 24.51 ± 5.50 min | EF enhancement factor [2, 16]: 1.69 | JS flux [2, 17]: 6.16 ± 0.89* 10^−4 μg/cm/s | KP permeability coefficient [2, 17]: 3.08 ± 0.44 10^−5 cm/s | TL lag time [2, 17]: 22.65 ± 3.22 min | EF enhancement factor [2, 17]: 1.25 | JS flux [2, 18]: 10.47 ± 0.96* 10^−4 μg/cm/s | KP permeability coefficient [2, 18]: 5.23 ± 0.48 10^−5 cm/s | TL lag time [2, 18]: 23.06 ± 2.19 min | EF enhancement factor [2, 18]: 2.12 | KP permeability coefficient [2, 19]: 6.34 ± 1.03 10^−5 cm/s | TL lag time [2, 19]: 14.55 ± 5.18 min | EF enhancement factor [2, 19]: 2.57 | KP permeability coefficient ([2]; Table 5c, BP, delipidised skin): 10.27 ± 1.43 10^−5 cm/s | TL lag time ([2]; Table 5c, BP, delipidised skin): 8.17 ± 5.41 min | EF enhancement factor ([2]; Table 5c, BP, delipidised skin): 4.16 | KP permeability coefficient [2, 20]: 7.80 ± 1.84 10^−5 cm/s | TL lag time [2, 20]: 34.78 ± 4.44 min | EF enhancement factor [2, 20]: 3.16 | KP permeability coefficient ([2]; Table 5c, BP, untreated skin): 2.47 ± 0.11 10^−5 cm/s | TL lag time ([2]; Table 5c, BP, untreated skin): 35.84 ± 1.98 min
